The text below walks through data of patent US20050203013A1, “Methods for inhibiting vascular permeability” (priority 2002, published 2005).

The test system of experiment [1] is VEGF induced vessel permeability. The experiment is described as follows: Miles assay (Example 2), VEGF165 challenge. In kind it is in vivo, mice. The procedure: One of the problems with angiogenesis-dependent diseases is increased vessel permeability (due to high levels of VPF) which results in edema and loss of proteins. A decrease in vessel permeability is beneficial in those diseases. […] Briefly, a dye, Evans Blue (1% in PBS), was injected i.v. to anesthesized mice. After 10 min, human recombinant VEGF165 (50 ng/50 μl) was injected intradermally into the back skin. Leakage of protein-bound dye was detected as blue spots on the underside of the back skin surrounding the injection site. After 20 min mice were euthanized. Then, the skin was excised, left in formamide for 5 days to be extracted and the solution read at 620 nm. Putative angiogenesis inhibitors such as free and conjugated TNP-470 were injected daily 3 days (30 mg/kg/day) prior to the VEGF challenge. The same was repeated on tumor-bearing mice to evaluate the effect of angiogenesis inhibitors on tumor vessel permeability.

Experiment [2] has as its system skin vessel permeability. The experiment is described as follows: Miles vascular permeability assay (Example 3). In kind it is in vivo, SCID mice. The procedure: SCID mice were injected subcutaneously (s.c.) with TNP-470 or HPMA copolymer-TNP-470 (30 mg/Kg TNP-equiv.) for three days, with Y27632 (50 nM s.c.) for 11 days, with angiostatin (200 mg/kg/day s.c.) for five days, or with saline (250 μl s.c.) for 5 days (n=12) prior to performing the Miles assay ([…] et al., 1996; Miles and Miles, 1952; Streit et al., 2000). Briefly, Evan's blue dye (100 μl of a 1% solution in 0.9% NaCl) was injected intravenously (i.v.) into mice. After 10 minutes, 50 μl of human VEGF165 (1 ng/μl), PAF (100 μM), CNF-1 (100 ng), histamine (1.2 μg/ml) or PBS (50 ul) were injected intradermally into the pre-shaved back skin. After 20 minutes, the animals were euthanized and an area of skin that included the blue spot resulting from leakage of the dye was removed. Evan's blue dye was extracted from the skin by incubation with formamide for 5 days at room temperature, and the absorbance of extracted dye was measured at 620 nm using a spectrophotometer. The unpaired Student t test was used for statistical analysis.

The test system of experiment [3] is U87 glioblastoma tumor blood vessel permeability. In words: Miles assay on tumor-bearing mice (Example 3), U87. More on the design: species or system SCID mice. Particulars: mouse, in vivo. The procedure:
Female SCID mice ( 8 weeks, 20 g) were inoculated s.c. with 5×10^6 viable U87 glioblastoma cells or viable A2058 human melanoma cells or BXPC3 pancreas adenocarcinoma cells. Female nu/nu mice were inoculated with MCF-7 or MDA-MB-231 breast carcinoma cells in the mammary fat pad. C57B1/6J were inoculated with LLC. […] blue dye was then injected i.v. and extravasation of dye assessed as above. Also, blood was withdrawn to measure VPF/VEGF levels in plasma and in tumors (n=5 from each group). Tumors (n=5 per group) were dissected, weighed and cut in half. Half of the tumor was placed in formalin and half was analyzed for VPF/VEGF protein by ELISA (see below). Formalin fixed tumors were processed for sectioning and staining with H & E, CD31, smooth muscle actin (SMA) and proliferating cell nuclear antigen (PCNA) according to the manufacturers' instructions.

Experiment [4] relates to skin capillary permeability. The experiment is described as follows: Evans Blue skin permeability assay, intradermal VEGF, endostatin-treated mice. In kind it is in vivo. Particulars: FVB/NJ mice, i.p. for 4 days. Here is the method:
(§1) The antiangiogenic factor (endostatin) was injected intraperitoneally to FVB/NJ mice for 4 days. Immediately after the last injection, mice were anasthesized and received intravenous injection of 100 μl Evans Blue dye (1% in PBS). Subsequently, different amounts of VEGF165, VEGF121 or saline were injected intradermaly. After 20 minutes, mice were sacrificed and skin flap from the back was removed and photographed. Skin samples from the injection sites were excised and incubated in formamide for 5 days in order to extract the dye and O.D. was measured at 620 nm. […] Quantitative analysis of Evans Blue dye extravasation (FIG. 1) confirmed the lower skin capillary permeability of the antiangiogenic factor-treated mice and indicated the weak permeability-inducing effect of VEGF in these mice.

Experiment [5] deals with skin capillary permeability. In words: Evans Blue skin permeability assay, intradermal PAF, endostatin-treated mice. The experiment is classed as in vivo. Particulars: Nude mice. The procedure:
as §1
In order to test if the effects of the antiangiogenic factor (endostatin) on vascular permeability is VEGF-specific, we have tested the effects of intradermal injection of platelet-activating factor (PAF) in Nude mice that were previously injected with the antiangiogenic factor and in control mice, as described above. […] Quantitative analysis of Evans Blue dye extravasation (FIG. 2) confirmed the lower skin capillary permeability of the antiangiogenic factor-treated mice compared with control and the lack of PAF-induced hyperpermeability in these mice. […]

Experiment [6] has as its system skin vessel permeability. In words: Duration of exposure: Alzet pump endostatin, skin vessel permeability. The experiment is classed as in vivo, mice (SCID). The procedure: In order to test if continuous exposure to the antiangiogenic factor (endostatin) is required to repress blood vessel permeability, mice (SCID) were anesthetized and “Alzet” pumps loaded with the antiangiogenic factor or saline were implanted intraperitoneally. The pumps release 1 μl the antiangiogenic factor per hour. Skin vessel permeability using Evans Blue dye was performed as described above. Saline and the antiangiogenic factor treated mice were examined 2, 3 and 4 days after pump implantation, as described above (FIG. 3). […] In both groups, PAF injection induced higher vessel permeability than saline injection. […] However, in both groups PAF injection induced higher vessel permeability than saline injection. […] Since the tumor vessels are continuously permeabilized and plasma proteins contained within the tumor support its vascularization the anti-permeability effect of the antiangiogenic factor offers a possible mechanism for its anti-tumor activity.

In experiment [7] the test system is Bovine capillary endothelial cells (BCE). The experiment is described as follows: In vitro diffusion of FITC-dextran through endothelial cell monolayer (Transwells). The experiment is classed as cell-based. The procedure: The effects of the antiangiogenic factor (endostatin) on skin vessel permeability in vivo were tested in an in vitro diffusion model designed to mimic blood vessel permeability. Bovine capillary endothelial cells (BCE) were seeded in collagen coated inserts of “Transwells” and grown to confluence. The antiangiogenic factor was added every 24 hours. Four days later the inserts were washed with BCE culture medium and the following tracers and permeability regulators were added to the inserts. Half of the inserts received 5 mg/ml FITC-labeled dextran 10 kDa and the other half received 5 mg/ml FITC-labeled dextran 70 kDa. In addition, some inserts received 50 ng/ml VEGF165 or 100 nM PAF. Control inserts received BCE culture medium with fluorescent tracers only. The fluorescence in the lower wells was measured after 10, 20, 30, 45 and 60 minutes by transferring the inserts into new wells.
In order to follow the kinetic of the diffusion process, the flow of the tracer was calculated as fluorescent counts per minute (FIGS. 5 and 6). […] In contrast, the flow in control cells was constant and was lower than that observed in PAF and VEGF165-treated cells.

The next experiment relates to lung tissue. In words: Swelling of lung tissue induced by micro-encapsulated VEGF-producing cells. In kind it is in vivo, Mice. Particulars: VEGF producing cells together with endostatin producing cells, 0.5x10^6 encapsulated cells of each. The source says: Dilation of the lung tissue may result in lung dysfunction and development of pulmonary hypertension. Mice injected with micro-encapsulated cells producing VEGF (approximately 0.5×10^6 cells per mouse) developed thickened lung parenchyma 5 days after injection. At a higher magnification we observed generation of several cell layers between the alveoli compared with one layer of cells in mice injected with micro-encapsulated control cells or with micro-encapsulated cells producing endostatin (Endost). […] Moreover, treatment with endostatin reduced the number of cell layers between the alveoli and the lungs of mice that were treated with endostatin appeared similar to control mice. Therefore, endostatin appears to block the swelling of lung tissue and may be used for treatment of pulmonary hypertension.

Experiment [8] deals with Bovine capillary endothelial cells (BCE). The experiment is described as follows: Immunostaining of tight junction proteins in BCE, endostatin. The experiment is classed as cell-based. The procedure:
Bovine capillary endothelial cells (BCE) were cultured in the presence of 0.2, 0.5 and 2 μg/ml human endostatin for three days. The cells were fixed and immunostained with anti-β-catenin, occludin, and ZO-1 antibodies (Zymed Laboratories, CA). The staining was developed using FITC-conjugated secondary antibodies and visualized under fluorescent microscopy. Immunostaining for β-catenin marked the cell borders and was more intense when two cells contacted each other. […] There was no difference in β-catenin staining between 0.5 and 2.0 μg/ml endostatin. […] Similar results were obtained with ZO-1 immunostaining. […] This is the first documentation of the effects of endostatin on tight junctions that may explain, in part, the mechanism of its antiangiogenic activities. Similar experiments were performed in which BCE were incubated in the presence and absence of 0.5 μg/ml endostatin for 3 days followed by stimulation with PAF for 20 minutes. The cells were fixed and immunostained with anti-α-catenin, occludin, and ZO-1 antibodies (Zymed Laboratories, CA), as described above.

In experiment [9] the test system is histamine-induced local edema. The experiment is described as follows: Histamine-induced wheal and flare test. In kind it is in vivo. Particulars: humans receiving the factor. The procedure:
Antiangiogenic treatment has entered into clinical trials recently. Molecules that are tested in phase 1 and 2 clinical trials include endostatin, angiostatin, TNP-470, thalidomide, anti-VEGF antibodies, PTK787, SU-5416, SU-6668 and others. […] Mice that received endostatin for several days had lower diffusion of Evans blue from the skin capillaries in response to intradermal VEGF and PAF injection compared with normal mice. The existing test of histamine-induced wheal and flare in skin can be used in order to test bioactivity of endostatin and other antiangiogenic factors. Intradermal injection of histamine leads to the formation of local adema ([…]) due to blood vessel hyperpermiability. […] This test will serve as an early surrogate marker for the bioactivity of endostatin and other antiangiogenic factors and help to determine the treatment's efficiency in individual patients.

On to `O=C1CCC(N2C(=O)c3ccccc3C2=O)C(=O)N1` (stereo not shown) [Thalidomide], for which the “effect on VEGF induced vessel permeability” value in experiment [1] was “no effect”. Moreover, in the experiment with skin vessel permeability [2] (VPF/VEGF intradermal), the “effect on VPF/VEGF-induced vessel permeability” value is reported as “no significant effect”.

Take `C[C@@H](N)[C@H]1CC[C@H](C(=O)Nc2ccncc2)CC1` [Y27632]: the “CNF-1-induced Evan's blue-albumin extravasation” value in the experiment with skin vessel permeability [2] (CNF-1 intradermal) is given as “inhibited”. In addition, in the experiment with skin vessel permeability [2] (VPF/VEGF intradermal), the “effect on VPF/VEGF-induced vessel permeability” value is “inhibited”.

Turning to angiostatin, in the experiment with skin vessel permeability [2] (PAF intradermal), the “decrease of PAF-induced permeability” value amounted to 37%. Also, the “inhibition of Evan's blue dye extravasation from VPF/VEGF injection sites” value with skin vessel permeability [2] (VPF/VEGF intradermal) was 40%. Also, the “decrease of histamine-induced permeability” value in the experiment with skin vessel permeability [2] (histamine intradermal) was 51%. For the same compound, the “Evan's blue extravasation into U87 glioblastomas” value in experiment [3] is recorded as “did not inhibit”.

On to endostatin, for which, in experiment [4] (intradermal VEGF165/VEGF121), the “VEGF-induced hyperpermeability (Evans Blue extravasation)” value was “minor induction of hyperpermeability”. For the same compound, the “Evans Blue dye leakage from skin capillaries” value in experiment [4] (vs control mice) is recorded as “overall lower dye leakage than the control”. The PAF-induced vascular permeability result in experiment [5] is “repressed”. Also, the “duration of treatment required to reduce skin vessel permeability” value with skin vessel permeability [6] (SCID mice, intraperitoneal Alzet pump) is given as “at least 3 days”. For the same compound, the “blood vessel permeability in response to PAF injection vs saline treated mice” value in the experiment with skin vessel permeability [6] (day two after pump implantation) is recorded as “no significant difference”. Also, the “flow of the tracer (fluorescent counts per minute)” value in [7] (10 kDa and 70 kDa dextrans) was “significant reduced flow”. Besides, in experiment [7] (BCE monolayer pre-treated 4 days, FITC-dextran 10 kDa and 70 kDa, vs control, VEGF165- and PAF-treated cells), the “sum of fluorescent count over 60 minutes” value is given as “significantly lower fluorescent counts”. In the experiment on lung tissue, the “lung tissue appearance (cell layers, extracellular matrix)” value was “fewer cell layers and no accumulation of extracellular matrix”. Also, the “cell boundary β-catenin staining” value was “intensified” in [8] (0.2 μg/ml, three days) and “further intensified” in experiment [8] (0.5 μg/ml, three days). Also, the “PAF reduction of staining intensity of anti-α-catenin, occludin and ZO-1” value in experiment [8] (0.5 μg/ml for 3 days, then PAF for 20 minutes) is “not in endostatin-treated cells”. Also, the ZO-1 immunostaining result in experiment [8] (0.2-2.0 μg/ml, three days) is recorded as “Cells boundaries were only visible”. Also, the occludin immunostaining result in experiment [8] (0.5 and 2.0 μg/ml, three days) is “cell boundaries were observed”. Besides, the “zone of edema after intradermal histamine” value in experiment [9] is on record as “reduced zone of edema”.
